Results on one molecule are retold here after paper PMC8575457, “Molecular reconstruction of recurrent evolutionary switching in olfactory receptor specificity” (eLife, 2021).

Experiment in all cases: single sensillum extracellular recording, Ir decoder neuron
Settings in all cases: 1% v/v odor in water, 10 ul, 500 ms pulse; agonist

One experiment concerns the target T1, DsecIr75b (Drosophila sechellia, UniProt A0A1S6EMU3).
T1 construct: gene IR75b; cDNA, UAS transgene expressed in D. melanogaster Ir decoder neuron with D. melanogaster Ir8a; predicted heterotetramer; with Ionotropic receptor 8a (D. melanogaster, endogenous)
T1 sequence (A0A1S6EMU3 1-609): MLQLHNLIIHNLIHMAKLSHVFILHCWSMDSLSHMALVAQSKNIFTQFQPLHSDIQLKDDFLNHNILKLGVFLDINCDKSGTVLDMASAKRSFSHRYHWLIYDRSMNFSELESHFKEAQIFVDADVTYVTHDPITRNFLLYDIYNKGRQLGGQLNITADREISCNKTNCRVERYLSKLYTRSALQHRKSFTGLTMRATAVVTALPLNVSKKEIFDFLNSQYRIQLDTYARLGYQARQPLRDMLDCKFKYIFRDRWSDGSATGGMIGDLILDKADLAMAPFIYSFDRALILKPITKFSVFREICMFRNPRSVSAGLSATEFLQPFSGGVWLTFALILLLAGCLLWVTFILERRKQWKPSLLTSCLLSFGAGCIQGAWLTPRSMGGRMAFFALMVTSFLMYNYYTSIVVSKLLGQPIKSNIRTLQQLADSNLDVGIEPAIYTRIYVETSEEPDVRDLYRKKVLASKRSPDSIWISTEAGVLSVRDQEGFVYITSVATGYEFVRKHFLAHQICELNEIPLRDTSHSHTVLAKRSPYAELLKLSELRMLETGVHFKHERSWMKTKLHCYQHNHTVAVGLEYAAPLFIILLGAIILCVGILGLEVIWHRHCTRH
T1 sequence (Q9W365 18-936 partner): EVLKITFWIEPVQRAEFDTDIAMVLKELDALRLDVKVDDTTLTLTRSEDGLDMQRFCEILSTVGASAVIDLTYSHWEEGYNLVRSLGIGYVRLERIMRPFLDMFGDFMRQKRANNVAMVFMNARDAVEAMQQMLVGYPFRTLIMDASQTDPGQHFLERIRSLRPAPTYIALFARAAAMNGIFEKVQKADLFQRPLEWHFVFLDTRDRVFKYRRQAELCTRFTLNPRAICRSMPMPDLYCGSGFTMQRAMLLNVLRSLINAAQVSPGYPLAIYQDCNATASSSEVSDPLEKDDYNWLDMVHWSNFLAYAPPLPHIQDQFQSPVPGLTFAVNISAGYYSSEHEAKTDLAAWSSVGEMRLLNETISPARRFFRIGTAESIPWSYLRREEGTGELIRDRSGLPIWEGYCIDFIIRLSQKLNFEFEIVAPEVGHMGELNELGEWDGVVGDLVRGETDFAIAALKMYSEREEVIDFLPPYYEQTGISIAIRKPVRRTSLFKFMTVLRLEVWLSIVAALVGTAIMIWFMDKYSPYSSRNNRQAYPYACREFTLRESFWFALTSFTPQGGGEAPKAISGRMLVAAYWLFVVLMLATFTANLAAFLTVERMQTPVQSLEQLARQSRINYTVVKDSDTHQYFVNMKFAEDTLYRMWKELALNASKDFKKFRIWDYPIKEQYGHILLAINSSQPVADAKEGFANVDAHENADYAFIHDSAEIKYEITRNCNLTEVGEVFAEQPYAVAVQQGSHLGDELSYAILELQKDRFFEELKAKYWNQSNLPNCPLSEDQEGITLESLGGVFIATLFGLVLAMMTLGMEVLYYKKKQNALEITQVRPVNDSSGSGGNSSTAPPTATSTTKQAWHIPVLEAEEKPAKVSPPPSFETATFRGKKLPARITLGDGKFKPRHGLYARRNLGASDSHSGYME
The format is cell-based, Drosophila melanogaster.

A further experiment deals with T2, DmelIr75b (Drosophila melanogaster, UniProt A0A1S6EMU4, T523S).
T2 construct: gene IR75b; cDNA, UAS transgene expressed in D. melanogaster Ir decoder neuron with endogenous Ir8a; predicted heterotetramer; with Ionotropic receptor 8a (D. melanogaster, endogenous)
T2 sequence (A0A1S6EMU4 1-609 T523S): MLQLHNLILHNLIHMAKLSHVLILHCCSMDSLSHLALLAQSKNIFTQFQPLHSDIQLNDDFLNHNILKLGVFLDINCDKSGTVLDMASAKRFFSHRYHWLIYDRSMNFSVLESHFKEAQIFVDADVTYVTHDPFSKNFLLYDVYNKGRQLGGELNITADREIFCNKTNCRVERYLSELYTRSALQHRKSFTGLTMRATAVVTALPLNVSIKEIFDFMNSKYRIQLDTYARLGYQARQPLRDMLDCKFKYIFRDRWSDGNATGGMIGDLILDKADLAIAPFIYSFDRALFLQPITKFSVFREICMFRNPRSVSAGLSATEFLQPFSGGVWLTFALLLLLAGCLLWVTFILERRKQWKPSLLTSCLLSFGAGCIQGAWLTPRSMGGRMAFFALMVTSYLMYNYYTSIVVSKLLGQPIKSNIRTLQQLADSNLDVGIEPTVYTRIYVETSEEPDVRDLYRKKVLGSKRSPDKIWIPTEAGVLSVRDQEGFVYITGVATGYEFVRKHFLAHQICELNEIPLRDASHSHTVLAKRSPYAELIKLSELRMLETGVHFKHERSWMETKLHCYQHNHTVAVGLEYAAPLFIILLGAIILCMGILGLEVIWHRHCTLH
T2 sequence (Q9W365 18-936 partner): T1 sequence (Q9W365 18-936 partner)
Type of experiment: cell-based.

Experiment [1] concerns the target T3, DmelIr75b^DsecS1 (Drosophila melanogaster, UniProt A0A1S6EMU4, I210K/M217L/K220Q/N259S/I277M/F289L/Q291K/P473S/G492S/A520T/T523S, form not given).
T3 construct: gene IR75b; UAS transgene in Ir decoder neuron; with Ionotropic receptor 8a (D. melanogaster, endogenous)
T3 sequence (A0A1S6EMU4 1-609 I210K/M217L/K220Q/N259S/I277M/F289L/Q291K/P473S/G492S/A520T/T523S): T2 sequence (A0A1S6EMU4 1-609 T523S) with I210K, M217L, K220Q, N259S, I277M, F289L, Q291K, P473S, G492S, A520T
T3 sequence (Q9W365 18-936 partner): T1 sequence (Q9W365 18-936 partner)
The format is cell-based.

Experiment [2] deals with T4, DmelIr75b^DsecS1 (Drosophila melanogaster, UniProt A0A1S6EMU4, I210K/M217L/K220Q/N259S/I277M/F289L/Q291K, form not given).
T4 construct: gene IR75b; UAS transgene in Ir decoder neuron; with Ionotropic receptor 8a (D. melanogaster, endogenous)
T4 sequence (A0A1S6EMU4 1-609 I210K/M217L/K220Q/N259S/I277M/F289L/Q291K): T2 sequence (A0A1S6EMU4 1-609 T523S) with I210K, M217L, K220Q, N259S, I277M, F289L, Q291K, S523T
T4 sequence (Q9W365 18-936 partner): T1 sequence (Q9W365 18-936 partner)
The format is cell-based.

Where a chain is given by its changes, count along the chain named.

With `CCCCCC(=O)O` [C6, hexanoic acid], the “solvent-corrected response (spikes/s)” value at DsecIr75b was “its response to C6 is significantly smaller than that of DsecIr75b”; on DmelIr75b, “mutation of the hotspot in DmelIr75b is sufficient to confer novel responses to C5 and C6”; on DmelIr75b^DsecS1 [1] it was “DmelIr75b^DsecS1,4mutS2 still has a significantly increased sensitivity to C6 when compared with DmelIr75b”; at DmelIr75b^DsecS1 [2] it was “DmelIr75b^DsecS1, with significantly increased responses to C6”.
